Source: PubChem BioAssay AID179 (DTP/NCI, 2004)
pEC50, pIC50: −log10 of the molar value. Calls of active or inactive are those of the source.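 The calls were made as follows: active = compounds giving half or more protection of infected cells from virus-caused growth loss, again on retest; inactive = the rest.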 Where a SMILES comes first, the peptide text is derived from it. [ ]: non-standard residue; d: D form. The star is where a group is joined. hSer = N[CH](CCO)C(=O)O; Boc = CC(C)(C)OC(=O)*

Tested on: CEM cells HIV-1 protection, formazan growth assay
Experiment: NCI AIDS Antiviral Assay
Details: for pIC50: measured here: growth of uninfected CEM cells
Method in brief: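 Protection of CEM cells against HIV-1 measured as cell growth via soluble formazan read-out, with five concentrations tested on both infected and uninfected cells; failure to protect may reflect toxicity.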

Row | Structure (SMILES) | pEC50 | pIC50 | outcome
1 | CCSC1=N/C(=C\c2ccco2)C(Cl)=N1 | < 4.00 | < 4.00 | 
2 | C[C@]12CC[C@@H]3c4cc(OCC(F)(F)F)c(O)cc4C(=O)C[C@H]3[C@@H]1CC[C@@H]2O | < 3.70 | 5.52 | 
3 | CN(C(=O)c1ccco1)C(=S)N1CCN(c2ccccn2)CC1 | < 3.40 | 3.68 | 
4 | S=c1sc2c(s1)SCCS2 | < 3.70 | 3.81 | 
5 | CN(C)c1ccc(C2NCCc3c2[nH]c2ccccc32)cc1 (configuration not stated) | < 3.70 | 4.60 | 
6 | COc1ccc(/C=C2\C(=O)N(C(=O)c3ccc(NC(C)=O)cc3)N=C2C)cc1 | < 4.72 | < 4.72 | 
7 | CCCCc1ccc(Nc2nc(Cl)c3c(ncn3COCCOC(C)=O)n2)cc1 | < 3.70 | 4.48 | 
8 | CCN(CC)C1=CC(=O)C(=O)c2cccnc21 |  |  | inactive
9 | O=C(Cc1ccccc1)c1ccc(O)cc1O | < 3.70 | 4.07 | 
10 | COc1ccccc1NCc1cccc2c(=O)c3ccc(Cl)cc3oc12 | < 3.82 | 4.33 | 
11 | C=CCC[P+](c1ccccc1)(c1ccccc1)c1ccccc1 | < 3.70 | 5.65 | 
12 | Clc1ccc2c(NCCCCN3OC3c3ccccc3)ccnc2c1 (configuration not stated) | < 3.70 | 5.30 | 
13 | COc1ccc(/C=C2/SC(c3ccc(Cl)cc3)N(NC(=O)CCCCCCCCC(=O)NN3C(=O)/C(=C\c4ccc(OC)c(OC)c4)SC3c3ccc(Cl)cc3)C2=O)cc1OC (configuration not stated) | 4.17 | 3.74 | 
14 | CC(=O)Oc1ccc(/C=C/C(=O)O[C@@H](C(=O)O)[C@@H](OC(=O)/C=C/c2ccc(OC(C)=O)c(OC(C)=O)c2)C(=O)O)cc1OC(C)=O | < 4.52 | < 4.52 | 
15 | COc1ccccc1/C=C/c1ccnc2ccccc12 | < 3.70 | 4.49 | 
16 | Cc1cn([C@H]2CC3C(CON3C)O2)c(=O)[nH]c1=O (some centres not stated) | < 3.70 | < 3.70 | 
17 | C/C(=N/NC(=S)N1CCCC1)c1cccc(/C(C)=N\NC(=S)N2CCCC2)n1 | < 5.70 | 6.91 | 
18 | COCCC(NC(=O)C(CC(C)C)NC(=O)OC(C)(C)C)C(N)=O (stereo not drawn) (Boc-Leu-[hSer](Me)-NH2; configuration not given here) | < 3.70 | < 3.70 | 
19 | CC(C)(C)C1CCC2c3c([nH]c4ccccc34)C3C(=O)N(c4ccc(C#N)cc4)C(=O)C3C2C1 (configuration not stated) | < 3.70 | 5.00 | 
20 | O=[N+]([O-])/C=C/c1cc2ccccc2[nH]1 | < 3.70 | 5.20 | 
21 | COc1ccc(/C(C)=N/NC(=O)c2ccncc2)c(OC)c1 | < 3.38 | 3.44 | 

Row | Structure (SMILES) | pEC50 | pIC50 | outcome
22 | COc1ccc(S(=O)(=O)N/N=C(\C)CN2C(=O)c3ccccc3C2=O)cc1OC | < 3.36 | < 3.36 | 
23 | CC1(c2cc(Cl)c(Cl)cc2Cl)NC(=O)NC1=O (configuration not stated) |  |  | inactive
24 | COc1ccc([C@H]2CC(=O)NCCCCN2)cc1 | < 3.70 | < 3.70 | 
25 | O=C1[C@@H]2C3c4ccccc4C([C@@H]2C(=O)N1c1ccccc1)S3(=O)=O |  |  | inactive
26 | COC(=O)[C@H](Cc1ccccc1)NC(=O)N1CCCN(C(=O)N[C@@H](Cc2ccccc2)C(=O)OC)CCCN(C(=O)N[C@@H](Cc2ccccc2)C(=O)OC)CCC1 | < 4.00 | 4.56 | 
27 | O=C(O)CCCc1ccc2c(c1)CC1(C2)Cc2ccc(CCCC(=O)O)cc2C1 | < 3.70 | 3.85 | 
28 | O=C1CSCN1N1CSCC1=O | < 3.70 | < 3.70 | 
29 | Cc1cc(S(=O)(=O)Nc2nc(N)nc(N3CCOCC3)n2)c(S)cc1Cl | 4.21 | < 3.70 | 
30 | OC(c1ccoc1)c1cc2ccccc2s1 (configuration not stated) | < 3.70 | 4.35 | 
31 | CC(C)(C)c1cc(C(C)(C)O)c2c(c1)C(C)(C)OS2(C)Cl (configuration not stated) | < 3.70 | 3.95 | 
32 | O=C1c2ccccc2/C=C\C(c2ccccc2)=N/N1c1ccccc1Cl | < 3.70 | 4.90 | 
33 | CC(=Nc1ccc([N+](=O)[O-])cc1)c1ccc(O)cc1 | < 3.70 | 4.97 | 
34 | O=C1Cc2c(-c3ccccc3)cc(-c3cccc(Cl)c3)nc2-c2ccccc2N1 |  |  | inactive
35 | C=C(C)C12CC3/C(=N\O)C(C1)C(C)C(/C3=N\O)[C@@]2(C)O (some centres not stated) | < 3.70 | < 3.70 | 
36 | OC12C=CC(CCCC1)O2 (configuration not stated) | < 3.70 | 4.91 | 
37 | COc1cc(C2SC(N)=Nc3c2c(C)nn3C(=O)c2ccc(Cl)cc2)ccc1O (configuration not stated) | < 3.70 | < 3.70 | 
38 | Nc1ccc2c3c1cccc3c(=O)n1c3ccc(Cc4ccc5c(c4)nc4c6ccc(N)c7cccc(c(=O)n54)c76)cc3nc21 | < 4.00 |  | 
39 | CCOC(=O)/C(=C\c1cn(C(C)=O)c2ccccc12)P(C)(=O)OCC (configuration not stated) | < 3.70 | 4.26 | 
40 | CC(N)C(=O)NCC(=O)NC(CO)C(=O)NC(CCC(N)=O)C(=O)NC(CCC(=O)O)C(=O)N1CCCC1C(=O)NC(CCCCN)C(=O)NC(CCC(=O)O)C(=O)NC(CCC(N)=O)C(=O)NC(CO)C(=O)NC(CO)C(=O)NC(Cc1ccc(O)cc1)C(=O)NC(CO)C(=O)NC(Cc1cnc[nH]1)C(=O)NC(CO)C(=O)O (configuration not stated) (H-AGSQEPKEQSSYSHS-OH; configuration not given here) | < 4.00 | < 4.00 | 
41 | O=C1[C@H]2C(c3ccccc3)=NN(C(=O)c3ccccc3)[C@H]2C(=O)N1c1ccccc1 |  |  | inactive
42 | O=[N+]([O-])c1ccc2c(Nc3ccccc3-c3ccccc3Nc3c4ccccc4nc4cc([N+](=O)[O-])ccc34)c3ccccc3nc2c1 | < 5.64 | < 5.64 | 

Row | Structure (SMILES) | pEC50 | pIC50 | outcome
43 | CN(C)CC1CCCCC1O (configuration not stated) | < 2.89 | < 2.89 | 
44 | CC12ON=C(c3ccccc3)N1C=CN1C(c3ccccc3)=NOC12 (configuration not stated) | < 3.70 | < 3.70 | 
45 | CCOC(=O)C1C(=O)c2ccccc2CN1Cc1ccccc1 (configuration not stated) |  |  | inactive
46 | Oc1c(C(Nc2cccc3cccnc23)c2ccccc2)ccc2cccnc12 (configuration not stated) | < 5.42 | 6.03 | 
47 | COC(=O)C12OC(C)(C(CC(=O)OC(C)(C)C)C1=O)C1C(=O)N(c3ccccc3)C(=O)C12 (configuration not stated) | < 3.70 | < 3.70 | 
48 | O=C(/C=C/c1ccsc1)c1ccco1 | < 3.70 | 4.96 | 
49 | CC(C)OP(=O)(CCCCCCCCC/C=C/c1ccc2c(c1)OCCOCCOCCOCCO2)OC(C)C | < 3.70 | 4.91 | 
50 | O=c1[nH]c2ccccc2c(=O)n1/N=C/c1ccc(O)cc1 | < 3.70 | < 3.70 | 
51 | CNNC1=NS(=O)(=O)c2cc(C#N)c(Cl)cc2S1 |  |  | inactive
52 | CCOC(=O)C1C[C@@H](O)CN1C(=O)c1ccc2c(c1)OCCO2 (some centres not stated) | < 3.70 | < 3.70 | 
53 | C=C1C[C@@H]2C[C@@H](C)CC(O)[C@]2(CCCN)C1O (some centres not stated) |  |  | inactive
54 | CC12C(=O)NC(c3ccncc3)(c3ccccc31)C1C(=O)N(c3ccccc3)C(=O)C12 (configuration not stated) | < 3.70 | 3.72 | 
55 | CCOC(=O)c1c(-c2ccc(Br)cc2)ccn1C | < 3.70 | 4.13 | 
56 | O=C1OC(OCC#CCOC2OC(=O)C(Cl)=C2Cl)C(Cl)=C1Cl (configuration not stated) | < 3.70 | 5.77 | 
57 | Cn1c(N)c(Br)c(=O)n(C)c1=O | < 3.70 | < 3.70 | 
58 | O=C1NC(=O)C2(CCCCCC2)N1 | < 3.70 | < 3.70 | 
59 | O=[N+]([O-])c1ccccc1SCc1ccccc1 | < 4.26 | 4.30 | 
60 | CC1(C)C=Cc2c(cc3oc4ccc5c(c4c(=O)c3c2O)C=CC(C)(C)O5)O1 | 4.44 | 4.30 | 
61 | C=CC[C@H](C)CCC(=O)N1[C@H]2CC3CC[C@@]2(CS1(=O)=O)C3(C)C | < 3.70 | 4.12 | 
62 | COc1cc2c(oc(=O)c3c4oc([Si](C)(C)C)cc4cc(OC)c23)c2cccc(OCc3ccccc3)c12 | < 6.30 | < 6.30 | 
63 | O=c1[nH]nc(Cl)c2c(O)c3ccccc3c(O)c12 | < 4.17 | 4.49 | 

Row | Structure (SMILES) | pEC50 | pIC50 | outcome
64 | Cn1c2ccccc2c2nnc(N/N=C/c3ccncc3)nc21 | < 3.70 | < 3.70 | 
65 | Cc1cc(C)c2c(c1)C(=O)c1c(O)ccc(O)c1C2=O |  |  | inactive
66 | O=C(O)c1ccc(Nc2cnc3ccc(C(F)(F)F)cc3n2)cc1 | < 3.70 | 4.95 | 
67 | Nc1ncnc2c1ncn2C1OC(CO)C(O)C(O)C1O (configuration not stated) | < 3.70 | < 3.70 | 
68 | COc1ccccc1/C=C/C(=O)C(C)(C)C | < 3.92 | 4.16 | 
69 | COC12C(COC(N)=O)C3=C(C(=O)C(C)=C(N)C3=O)N1CC1C2N1C (configuration not stated) | < 3.14 | 6.38 | 
70 | O=C1/C(=C/c2ccccc2)Oc2cc(O)ccc21 | < 3.70 | 3.96 | 
71 | COc1cc([N+](=O)[O-])c(S(=O)(=O)O)cc1-n1nc(C(=O)Nc2ccccc2)n[n+]1-c1cc(S(=O)(=O)[O-])c([N+](=O)[O-])cc1OC | < 3.43 | 3.54 | 
72 | N#Cc1c(N2CCCC2)[nH]c(=O)n(Cc2ccccc2)c1=S | < 3.70 | 3.94 | 
73 | Nc1nc(Br)nc2ncn(C3CC(O)C(CO)O3)c12 (configuration not stated) | < 3.70 | 5.13 | 
74 | COc1ccccc1NC(=O)/C(Cc1nc2ccc([N+](=O)[O-])cc2[nH]c1=O)=N\NC(=O)C[N+](C)(C)C | < 3.61 | 4.30 | 
75 | c1ccc2c(c1)Nc1ccccc1[P+]21c2ccccc2Nc2ccccc21 | < 5.70 | 6.54 | 
76 | COc1ccc(NC(=O)CC/C(CC(=O)c2ccco2)=N/Nc2ccc([N+](=O)[O-])cc2[N+](=O)[O-])cc1 | < 4.28 | 4.51 | 
77 | COC(=O)/C=C(/C(=O)OC)c1c(C)c(C)c2c(C)cc(C)cc(C)c1-2 | < 3.70 | 5.00 | 
78 | NCCCNc1ccc2c(c1)[n+]([O-])c1ccccc1[n+]2[O-] | < 3.36 | 4.99 | 
79 | O=S1(=O)Cc2ccccc21 | < 2.93 | 3.23 | 
80 | CN1CCC2(CC1)C(C#N)C(=O)NC(=O)C2C#N (configuration not stated) | < 3.47 | < 3.47 | 
81 | COP1(=O)OC(C)=C(C)c2cccn21 (configuration not stated) | < 4.22 | < 4.22 | 
82 | O=C(Nc1ccccc1C(=O)NCc1ccccc1)/C(=C/c1ccccc1O)NC(=O)c1ccccc1 |  |  | inactive
83 | COC1/C=C/OC2(C)Oc3c(C)c(O)c4c(O)c(cc(OCC(=O)N(C)C5CCCC5)c4c3C2=O)NC(=O)/C(C)=C/C=C/C(C)C(O)C(C)C(O)C(C)C(OC(C)=O)C1C (configuration not stated) | < 3.70 | 4.54 | 
84 | COc1ccc(/C=C2/SC(=S)NC2=O)c(OC)c1OC | < 3.70 | 5.11 | 
